Measurements from patent US20260256881A1, “COMPOSITIONS COMPRISING PEDF-DERIVED SHORT PEPTIDES FOR THE TREATMENT OF NEUROTROPHIC KERATITIS DISEASES” (BRIM Biotechnology, Inc., priority 2022, published 2026).

Legend:
Format in all cases: in vivo
[1] = tested on: NK model in Chinchilla rabbits (ophthalmic branch (V1) of trigeminal nerve injured with sodium hydroxide); experiment: Central corneal sensitivity with Von Frey filaments, NK rabbit model; details: for Corneal Sensitivity, Contact force (Nylon size) / Corneal Sensitivity, Contact force: X ± SEM, n = 8
Experimental: (§1) The NK model is established in Chinchilla rabbits by using a chemical method to destroy the ophthalmic branch (V1) of trigeminal nerve to induce NK. Briefly, animals were anesthetized. […] The trigeminal nerve was carefully separated from surrounding fasciae, and the ophthalmic nerve (V1) of trigeminal nerve was isolated and injured with sodium hydroxide solution. The V1 injury was performed for unilateral eye in each animal for 5 days prior to treatment.
(§2) A total of 16 animals were assigned randomly into two groups based on corneal ulcer areas at Day 1 prior to the treatments, and the animals received either BRM424 ophthalmic solution (OS containing 0.03% BRM424; TA-1 group) or Vehicle (TA-2 group) in the surgical eye three times daily (TID, eye drops) for 28 days. During the study period, the corneal ulcer areas, corneal fluorescein staining, corneal sensitivity, Schirmer test, and Tear film break-up time (TFBUT) at baseline (Day 0), Day 4, Day 8, Day 15, Day 22, and Day 29 were measured.
Central corneal sensitivity was monitored using Von Frey filaments. Various forces of calibrated Von Frey filaments (0.008-300 g) were applied to the center of the cornea surface of immobilized animal. The mechanical threshold response was determined by assessing treated-eye blinking response evoked by the same calibrated Von Frey filaments twice out of three times. FIG. 4A and FIG. 4B show results for corneal sensitivity tests. Prior to the dose administration (Day 0), there was no corneal reflex in all animals, even when using the coarsest nylon filament (Force 0.008-300 g).

[2] = tested on: NK model in Chinchilla rabbits (ophthalmic branch (V1) of trigeminal nerve injured with sodium hydroxide); experiment: Corneal ulceration area, slit-lamp with cobalt blue light, NK rabbit model; details: for Corneal Ulceration Area: X ± SEM, n = 8
Experimental: as §1, §2
Corneal ulceration areas were measured from images taken during slit-lamp examination with cobalt blue light. […] At Day 0, the corneal ulceration areas were 25.98±1.88 mm^2 for the TA-1 group and 27.65±2.66 mm^2 for the TA-2 group, and these areas were reduced to 7.80±1.45 mm^2 and 13.30±2.36 mm^2 by Day 8 for the TA-1 group and TA-2 group, respectively.

[3] = tested on: NK model in Chinchilla rabbits (ophthalmic branch (V1) of trigeminal nerve injured with sodium hydroxide); experiment: Tear film break-up time (TFBUT), NK rabbit model; details: for TFBUT: X ± SEM, n = 8
Experimental: as §1, §2

[4] = tested on: NK model in Chinchilla rabbits (ophthalmic branch (V1) of trigeminal nerve injured with sodium hydroxide); experiment: Schirmer test for tear production, NK rabbit model; details: for Schirmer Test: X ± SEM, n = 8
Experimental: as §1, §2
However, the tear volumes of the TA-1 group at Day 29 were about 2-fold higher than that at Day 0.

[5] = tested on: NK model in Chinchilla rabbits (ophthalmic branch (V1) of trigeminal nerve injured with sodium hydroxide); experiment: Corneal fluorescein staining (FL score), NK rabbit model; set-up: Fluorescein Staining Score: scale not given here; details: for Fluorescein Staining Score: X ± SEM, n = 8
Experimental: as §1, §2
Cornea damage may be assessed using corneal fluorescein staining. […] The mean value of corneal fluorescein sodium staining scores at Day 0 was 3.62±0.18 for both the TA-1 and TA-2 groups and fell below 3 (TA-1=1.38±0.18, TA-2=2.36±0.42) by Day 8, indicating a quick onset of action. […] The fluorescein staining score of the TA-1 group reached 1 by Day 29.

[6] = Day 4, 0.03% BRM424 ophthalmic solution TID
[7] = Day 8, 0.03% BRM424 ophthalmic solution TID
[8] = Day 15, 0.03% BRM424 ophthalmic solution TID
[9] = Day 22, 0.03% BRM424 ophthalmic solution TID
[10] = Day 29, 0.03% BRM424 ophthalmic solution TID
[11] = Day 0 (baseline, prior to treatment)
[12] = Day 0 (baseline, prior to treatment), listed as TA-1
[13] = after 29 days of topical dose administrations

In the case of “SLGAEQRTESIIHRALYYDLISSPDIHGT (ophthalmic solution 0.03%; listed as Homo sapiens) [BRM424, PEDF-derived short peptide (PDSP), residues 93-121 of PEDF]”, the “Corneal Sensitivity, Contact force (Nylon size)” value ([1]; Day 0 (baseline, prior to treatment), Von Frey filament that triggered corneal reflex) is reported as 6.65 ± 0.00, the “Corneal Sensitivity, Contact force” value ([1]; Day 0 (baseline, prior to treatment), force that triggered corneal reflex) is reported as 300.00 ± 0.00 g and the “Corneal Sensitivity, Contact force” value [1, 6] is reported as 300.00 ± 0.00 g. The “Corneal Sensitivity, Contact force (Nylon size)” value [1, 6] was 6.65 ± 0.00, the “Corneal Sensitivity, Contact force” value [1, 7] was 300.00 ± 0.00 g and the “Corneal Sensitivity, Contact force (Nylon size)” value [1, 7] was 6.65 ± 0.00. For the same sequence, the “Corneal Sensitivity, Contact force” value [1, 8] was 235.75 ± 42.18 g, the “Corneal Sensitivity, Contact force (Nylon size)” value [1, 8] was 6.41 ± 0.16 and the “Corneal Sensitivity, Contact force” value [1, 9] was 300.00 ± 0.00 g. For the same sequence, the “Corneal Sensitivity, Contact force (Nylon size)” value [1, 9] was 6.65 ± 0.00, the “Corneal Sensitivity, Contact force” value [1, 10] was 189.75 ± 53.80 g and the “Corneal Sensitivity, Contact force (Nylon size)” value [1, 10] was 5.93 ± 0.35. The “Corneal sensation recovery compared with vehicle (TA-2) group” value ([1]; after 29 days of treatments) was “recovered faster with better improvement than the TA-2 group”, the “Corneal Ulceration Area” value [2, 11] was 25.98 ± 1.88 mm^2 and the “Corneal Ulceration Area” value [2, 12] was 25.98±1.88 mm^2. The “Corneal Ulceration Area” value ([2]; Day 4, 0.03% BRM424 ophthalmic solution, eye drops TID, surgical eye) was 13.63 ± 2.51 mm^2, the “Corneal ulceration area reduction compared with vehicle (TA-2) group” value ([2]; Day 8, Day 15 and Day 29, p<0.05) was “more than that of TA-2 group” and the “Corneal Ulceration Area” value ([2]; Day 8, 0.03% BRM424 ophthalmic solution, eye drops TID, surgical eye) was 7.80 ± 1.45 mm^2. The “Corneal Ulceration Area” value ([2]; Day 8, 0.03% BRM424 ophthalmic solution, eye drops TID, surgical eye, listed as TA-1) was 7.80±1.45 mm^2, the “Corneal Ulceration Area” value ([2]; Day 15, 0.03% BRM424 ophthalmic solution, eye drops TID, surgical eye) was 9.93 ± 2.46 mm^2 and the “Corneal Ulceration Area” value ([2]; Day 22, 0.03% BRM424 ophthalmic solution, eye drops TID, surgical eye) was 7.29 ± 2.11 mm^2. The “Corneal Ulceration Area” value ([2]; Day 29, 0.03% BRM424 ophthalmic solution, eye drops TID, surgical eye) was 4.81 ± 1.44 mm^2, the TFBUT [3, 11] was 5.50 ± 0.33 s and the TFBUT [3, 6] was 4.88 ± 0.48 s. For the same sequence, the TFBUT [3, 7] was 6.75 ± 0.45 s, the TFBUT [3, 8] was 5.13 ± 0.55 s and the TFBUT [3, 9] was 4.38 ± 0.32 s. For the same sequence, the TFBUT [3, 10] was 5.38 ± 0.32 s, the “TFBUT, difference between TA-1 and TA-2 (vehicle) groups” value [3, 13] was “no significant difference” and the “Schirmer Test” value [4, 11] was 5.63 ± 0.71 mm. The “Schirmer Test” value [4, 6] was 6.00 ± 0.93 mm, the “Schirmer Test” value [4, 7] was 5.50 ± 1.02 mm and the “Schirmer Test” value [4, 8] was 6.38 ± 0.86 mm. For the same sequence, the “Schirmer Test” value [4, 9] was 6.50 ± 1.24 mm, the “Schirmer Test” value [4, 10] was 10.75 ± 1.59 mm and the “Tear volumes at Day 29 relative to Day 0” value ([4]; Day 29 vs Day 0, same group) was “about 2 fold”. The “Tear volumes, difference between TA-1 and TA-2 (vehicle) groups” value [4, 13] was “no significant difference”, the “Fluorescein Staining Score” value [5, 11] was 3.62 ± 0.18 and the “Fluorescein Staining Score” value [5, 12] was 3.62±0.18. For the same sequence, the “Fluorescein Staining Score” value ([5]; Day 4, 0.03% BRM424 ophthalmic solution, eye drops TID) was 2.00 ± 0.38, the “Fluorescein Staining Score” value ([5]; Day 8, 0.03% BRM424 ophthalmic solution, eye drops TID) was 1.38 ± 0.18 and the “Fluorescein Staining Score” value ([5]; Day 8, 0.03% BRM424 ophthalmic solution, eye drops TID, listed as TA-1) was 1.38±0.18. The “Fluorescein staining score, difference between TA-1 and TA-2 (vehicle) groups” value ([5]; Day 8 and Day 15, P<0.05) was “Significant difference”, the “Fluorescein Staining Score” value ([5]; Day 15, 0.03% BRM424 ophthalmic solution, eye drops TID) was 1.63 ± 0.36 and the “Fluorescein Staining Score” value ([5]; Day 22, 0.03% BRM424 ophthalmic solution, eye drops TID) was 1.25 ± 0.16. The “Fluorescein Staining Score” value ([5]; Day 29, 0.03% BRM424 ophthalmic solution, eye drops TID) was 1.00 ± 0.19 and the “Fluorescein Staining Score” value ([5]; Day 29, 0.03% BRM424 ophthalmic solution, eye drops TID, listed as TA-1) was 1.
